Key:
glucocorticoid receptor = biological target: T1, glucocorticoid receptor (Homo sapiens, UniProt P04150); assay: Glucocorticoid Receptor Binding Assay ([3H]-dexamethasone, A549 cell extract); conditions: [3H]-dexamethasone binding, read-out: GR Ki
T1 construct: containing 50-200 ug of A549 cell extract and 1.86 nM [^3H]-dexamethasone; host or cells: A549 human lung epithelial cells (sonicated cell extract)
T1 sequence (P04150 1-777): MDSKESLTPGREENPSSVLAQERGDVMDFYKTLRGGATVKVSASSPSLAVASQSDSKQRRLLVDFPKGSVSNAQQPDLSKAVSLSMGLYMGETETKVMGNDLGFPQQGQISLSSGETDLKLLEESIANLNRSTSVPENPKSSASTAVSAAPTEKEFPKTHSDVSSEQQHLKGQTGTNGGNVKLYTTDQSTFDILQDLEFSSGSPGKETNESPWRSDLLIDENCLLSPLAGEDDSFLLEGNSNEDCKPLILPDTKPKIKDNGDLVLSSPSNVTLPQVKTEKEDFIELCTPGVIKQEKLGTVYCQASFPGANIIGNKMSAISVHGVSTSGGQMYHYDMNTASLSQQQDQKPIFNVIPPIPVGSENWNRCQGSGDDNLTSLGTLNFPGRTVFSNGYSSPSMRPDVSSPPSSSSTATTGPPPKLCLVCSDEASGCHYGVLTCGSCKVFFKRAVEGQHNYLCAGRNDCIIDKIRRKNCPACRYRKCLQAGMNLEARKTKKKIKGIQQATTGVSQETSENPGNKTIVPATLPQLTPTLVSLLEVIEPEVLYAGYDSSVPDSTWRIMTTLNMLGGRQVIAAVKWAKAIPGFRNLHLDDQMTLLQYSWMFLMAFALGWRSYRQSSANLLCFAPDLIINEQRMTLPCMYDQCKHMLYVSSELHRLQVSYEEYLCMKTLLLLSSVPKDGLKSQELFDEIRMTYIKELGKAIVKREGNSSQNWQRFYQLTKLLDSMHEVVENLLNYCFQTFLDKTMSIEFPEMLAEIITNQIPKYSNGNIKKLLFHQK
Summary of the method: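 Displacement of [3H]-dexamethasone (1.86 nM) from glucocorticoid receptor in sonicated A549 lung epithelial cell extracts, 16 h at 4 °C, pH 7.2 molybdate-containing buffer. Bound radioactivity was scintillation-counted after charcoal/dextran stripping of free ligand.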

human MR = biological target: T2, human MR (Homo sapiens, UniProt P08235); assay: Mineralocorticoid Receptor Binding Assay ([3H]-aldosterone); conditions: [3H]-aldosterone binding, human MR expressed in Sf9 cells; read-out: MR Ki
T2 construct: The full length human MR gene is cloned from a human kidney or human brain cDNA library; His tag from the pAcHLT vector (own knowledge); made in house; host or cells: Sf9 insect cells (baculovirus, pAcHLT transfer vector)
T2 sequence (P08235 1-984): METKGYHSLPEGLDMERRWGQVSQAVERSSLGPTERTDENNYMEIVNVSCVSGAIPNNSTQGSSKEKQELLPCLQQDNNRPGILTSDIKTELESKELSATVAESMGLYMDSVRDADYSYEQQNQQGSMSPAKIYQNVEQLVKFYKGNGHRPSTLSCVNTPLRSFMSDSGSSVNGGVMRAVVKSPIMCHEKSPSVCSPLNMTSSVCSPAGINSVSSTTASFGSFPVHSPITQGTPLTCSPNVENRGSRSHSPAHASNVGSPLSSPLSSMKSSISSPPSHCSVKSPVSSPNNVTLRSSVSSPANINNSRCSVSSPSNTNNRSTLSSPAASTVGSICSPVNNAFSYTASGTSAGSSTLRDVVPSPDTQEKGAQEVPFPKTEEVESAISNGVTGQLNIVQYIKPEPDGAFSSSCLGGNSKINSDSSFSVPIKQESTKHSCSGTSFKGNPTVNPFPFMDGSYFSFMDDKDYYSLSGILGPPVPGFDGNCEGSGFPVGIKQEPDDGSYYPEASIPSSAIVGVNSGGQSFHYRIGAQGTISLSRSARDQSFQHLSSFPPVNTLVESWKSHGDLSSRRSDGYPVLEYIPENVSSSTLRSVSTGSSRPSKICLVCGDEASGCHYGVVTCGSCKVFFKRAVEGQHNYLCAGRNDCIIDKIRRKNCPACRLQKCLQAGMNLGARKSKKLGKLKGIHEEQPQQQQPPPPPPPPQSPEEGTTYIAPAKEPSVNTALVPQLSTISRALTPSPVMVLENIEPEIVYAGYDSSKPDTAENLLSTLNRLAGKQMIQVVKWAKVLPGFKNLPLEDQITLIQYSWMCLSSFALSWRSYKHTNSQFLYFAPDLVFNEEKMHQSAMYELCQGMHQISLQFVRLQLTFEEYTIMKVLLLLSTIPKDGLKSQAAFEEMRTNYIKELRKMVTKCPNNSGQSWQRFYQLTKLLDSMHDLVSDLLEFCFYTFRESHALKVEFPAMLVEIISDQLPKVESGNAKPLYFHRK
Summary of the method: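 Receptor source: freeze-thaw lysate of baculovirus-infected Sf9 cells carrying full-length human MR, 20-25 μg protein. Incubation ~16 h at 4 °C with shaking, pH 7.5 buffer containing 30 mM sodium molybdate and 10% glycerol.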

Row | Structure (SMILES) | Ki (glucocorticoid receptor) | Ki (human MR)
1 | O=c1[nH]c2cc(/C=C3/c4ccccc4COc4cc(F)ccc43)ccc2n1CCN1CCOCC1 [Example 712] | < 0.5 µM | < 0.5 µM
2 | O=c1[nH]c2ccc(C=C3c4ccccc4OCc4c(F)cccc43)cc2[nH]1 [Example 713] | < 0.5 µM | < 0.5 µM
3 | O=c1[nH]c2ccc(C=C3c4cc(F)ccc4COc4ccccc43)cc2[nH]1 [Example 714] | < 10 µM | < 0.5 µM
4 | O=c1[nH]c2ccc(C=C3c4cc(Cl)ccc4COc4ccccc43)cc2[nH]1 [Example 715] | < 1 µM | < 0.5 µM
5 | O=c1[nH]c2cc(/C=C3/c4ccc(F)cc4OCc4ncsc43)ccc2n1CCN1CCOCC1 [Example 718] | < 10 µM | < 0.5 µM
6 | O=S(=O)(CC(F)(F)F)Nc1cccc(C=C2c3ccc(Cl)cc3CSc3cc(Cl)ccc32)c1 [Example 721] | < 0.5 µM | < 0.5 µM
7 | CS(=O)(=O)NCc1cccc(/C=C2\c3ccccc3CSc3ccccc32)c1 [Example 722] | < 0.5 µM | < 0.5 µM
8 | CS(=O)(=O)Nc1cccc(/C=C2\c3ccc(F)cc3COc3ccccc32)c1 [Example 723] | < 0.5 µM | < 0.5 µM
9 | CS(=O)(=O)Nc1cccc(/C=C2/c3ccc(F)cc3COc3ccccc32)c1 [Example 724] | < 0.5 µM | < 0.5 µM
10 | CS(=O)(=O)Nc1cccc(/C=C2\c3ccc(Cl)cc3COc3ccccc32)c1 [Example 725] | < 0.5 µM | < 0.5 µM
11 | CS(=O)(=O)Nc1cccc(/C=C2/c3ccc(Cl)cc3COc3ccccc32)c1 [Example 726] | < 0.5 µM | < 0.5 µM
12 | CS(=O)(=O)Nc1cccc(/C=C2\c3cc(Cl)ccc3COc3ccccc32)c1 [Example 727] | < 0.5 µM | < 0.5 µM
13 | CS(=O)(=O)Nc1cccc(/C=C2/c3cc(Cl)ccc3COc3ccccc32)c1 [Example 728] | < 0.5 µM | < 0.5 µM
14 | CS(=O)(=O)Nc1cccc(/C=C2/c3cc(F)ccc3COc3ccccc32)c1 [Example 729] | < 0.5 µM | < 0.5 µM
15 | CS(=O)(=O)Nc1cccc(/C=C2\c3cc(F)ccc3COc3ccccc32)c1 [Example 730] | < 0.5 µM | < 0.5 µM
16 | CS(=O)(=O)Nc1cccc(/C=C2/c3ccccc3OCc3c(F)cccc32)c1 [Example 731] | < 0.5 µM | < 0.5 µM
17 | CS(=O)(=O)Nc1cccc(/C=C2\c3ccccc3OCc3c(F)cccc32)c1 [Example 732] | < 0.5 µM | < 0.5 µM
18 | COc1cccc2c1COc1ccccc1[C@H]2Cc1cccc(NS(C)(=O)=O)c1 [Example 733] | < 0.5 µM | < 0.5 µM
19 | COc1ccc2c(c1)COc1ccccc1[C@H]2Cc1cccc(NS(C)(=O)=O)c1 [Example 734] | < 0.5 µM | < 0.5 µM
20 | COc1ccc2c(c1)COc1cc(F)ccc1/C2=C\c1cccc(NS(C)(=O)=O)c1 [Example 735] | < 0.5 µM | < 0.5 µM

Continued, values first:

Row | Ki (glucocorticoid receptor) | Ki (human MR) | Structure (SMILES)
21 | < 0.5 µM | < 0.5 µM | COc1ccc2c(c1)COc1cc(F)ccc1/C2=C/c1cccc(NS(C)(=O)=O)c1 [Example 736]
22 | < 0.5 µM | < 0.5 µM | COc1cccc2c1[C@H](Cc1cccc(NS(C)(=O)=O)c1)c1ccccc1OC2 [Example 737]
23 | < 0.5 µM | < 0.5 µM | COc1ccc2c(c1OC)CSc1ccccc1/C2=C/c1cccc(NS(=O)(=O)c2ccccc2)c1 [Example 738]
24 | < 0.5 µM | < 0.5 µM | O=S(=O)(Nc1cccc(/C=C2\c3ccccc3CSc3ccccc32)c1)c1ccccc1 [Example 739]
25 | < 0.5 µM | < 0.5 µM | Cc1ccc2c(c1)CSc1ccccc1C2=Cc1cccc(NS(C)(=O)=O)c1 [Example 740]
26 | < 0.5 µM | < 0.5 µM | CS(=O)(=O)Nc1cccc(/C=C2/c3ccccc3CSc3cc(Cl)ccc32)c1 [Example 741]
27 | < 0.5 µM | < 0.5 µM | CS(=O)(=O)Nc1cccc(/C=C2\c3ccccc3CSc3cc(Cl)ccc32)c1 [Example 742]
28 | < 0.5 µM | < 0.5 µM | Cc1ccc2c(c1)CSc1ccccc1/C2=C\c1cccc(NS(C)(=O)=O)c1 [Example 743]
29 | < 0.5 µM | < 0.5 µM | Cc1ccc2c(c1)CSc1ccccc1/C2=C/c1cccc(NS(C)(=O)=O)c1 [Example 744]
30 | < 0.5 µM | < 0.5 µM | CS(=O)(=O)Nc1cccc(/C=C2/c3ccccc3CSc3cc(F)ccc32)c1 [Example 745]
31 | < 0.5 µM | < 0.5 µM | CS(=O)(=O)Nc1cccc(/C=C2\c3ccccc3CSc3cc(F)ccc32)c1 [Example 746]
32 | < 0.5 µM | < 0.5 µM | COc1ccc2c(c1)SCc1ccccc1C2=Cc1cccc(NS(C)(=O)=O)c1 [Example 747]
33 | < 0.5 µM | < 0.5 µM | Cc1ccc2c(c1)SCc1ccccc1/C2=C/c1cccc(NS(C)(=O)=O)c1 [Example 748]
34 | < 0.5 µM | < 0.5 µM | Cc1ccc2c(c1)SCc1ccccc1/C2=C\c1cccc(NS(C)(=O)=O)c1 [Example 749]
35 | < 0.5 µM | < 0.5 µM | CCOC(=O)C(=C1c2ccccc2CCc2ccccc21)c1cccc(NS(C)(=O)=O)c1 [Example 753, (10,11-Dihydro-dibenzo[a,d]cyclohepten-5-ylidene)-(3-methanesulfonylamino-phenyl)-acetic acid ethy lester]
36 | < 0.5 µM | < 0.5 µM | CS(=O)(=O)Nc1cccc(C(CO)=C2c3ccccc3CCc3ccccc32)c1 [Example 755, N-{3-[1-(10,11-Dihydro-dibenzo[a,d]cyclohepten-5-ylidene)-2-hydroxy-ethyl]-phenyl}-methanesulfonamide]
37 | < 10 µM | < 0.5 µM | CCC(=C1c2ccccc2CCc2ccccc21)c1cccc(N)c1 [Example 760]
38 | < 0.5 µM | < 0.5 µM | CC(=C1c2ccccc2CCc2ccccc21)c1cccc(N)c1 [Example 761]
39 | < 0.5 µM | < 0.5 µM | CS(=O)(=O)Nc1cccc(C(=C2c3ccccc3CCc3ccccc32)c2ccccc2)c1 [Example 762]
40 | < 0.5 µM | < 0.5 µM | CCC(=C1c2ccccc2CCc2ccccc21)c1cccc(NS(C)(=O)=O)c1 [Example 763]
41 | < 0.5 µM | < 0.5 µM | CC(=C1c2ccccc2CCc2ccccc21)c1cccc(NS(C)(=O)=O)c1 [Example 765]
42 | < 10 µM | < 0.5 µM | Nc1cccc(C(=C2c3ccccc3CCc3ccccc32)c2ccc(-c3ccccc3)cc2)c1 [Example 766]
43 | < 0.5 µM | < 0.5 µM | CS(=O)(=O)Nc1cccc(C(=C2c3ccccc3CCc3ccccc32)c2ccc(-c3ccccc3)cc2)c1 [Example 767]
44 | < 10 µM | < 0.5 µM | COc1ccc(C(=C2c3ccccc3CCc3ccccc32)c2cccc(NS(C)(=O)=O)c2)cc1 [Example 768]
45 | < 0.5 µM | < 0.5 µM | CC(=C1c2ccc(C)cc2CCc2cc(C)ccc21)c1cccc(NS(C)(=O)=O)c1 [Example 771]

Source: patent US20060063759A1, “Tricyclic steroid hormone nuclear receptor modulators” (priority 2002, published 2006)
